{"source": "PubChem BioAssay (NCI)", "assay_in_all_cases": "DTP human tumour cell line panel, 48 h", "key": {"SK-MEL-5 melanoma": {"tested_on": "SK-MEL-5 melanoma"}, "HS 578T breast": {"tested_on": "HS 578T breast"}, "TK-10 renal": {"tested_on": "TK-10 renal"}, "786-0 renal": {"tested_on": "786-0 renal"}, "A498 renal": {"tested_on": "A498 renal"}, "NCI/ADR-RES ovarian": {"tested_on": "NCI/ADR-RES ovarian"}, "KM12 colon": {"tested_on": "KM12 colon"}, "SK-MEL-2 melanoma": {"tested_on": "SK-MEL-2 melanoma"}, "OVCAR-3 ovarian": {"tested_on": "OVCAR-3 ovarian"}, "T-47D breast": {"tested_on": "T-47D breast"}, "SK-OV-3 ovarian": {"tested_on": "SK-OV-3 ovarian"}, "RPMI-8226 leukemia": {"tested_on": "RPMI-8226 leukemia"}, "OVCAR-4 ovarian": {"tested_on": "OVCAR-4 ovarian"}, "U251 CNS": {"tested_on": "U251 CNS"}, "MDA-MB-435": {"tested_on": "MDA-MB-435"}, "HOP-92 NSCLC": {"tested_on": "HOP-92 NSCLC"}, "HT29 colon": {"tested_on": "HT29 colon"}, "NCI-H23 lung": {"tested_on": "NCI-H23 lung"}, "NCI-H522 lung": {"tested_on": "NCI-H522 lung"}, "CCRF-CEM leukemia": {"tested_on": "CCRF-CEM leukemia"}, "IGROV1 ovarian": {"tested_on": "IGROV1 ovarian"}, "HCT-15 colon": {"tested_on": "HCT-15 colon"}, "M14 melanoma": {"tested_on": "M14 melanoma"}, "DU-145 prostate": {"tested_on": "DU-145 prostate"}, "HOP-62 NSCLC": {"tested_on": "HOP-62 NSCLC"}, "UACC-257 melanoma": {"tested_on": "UACC-257 melanoma"}, "HCT-116 colon": {"tested_on": "HCT-116 colon"}, "EKVX NSCLC": {"tested_on": "EKVX NSCLC"}, "SNB-75 CNS": {"tested_on": "SNB-75 CNS"}, "SF-295 CNS": {"tested_on": "SF-295 CNS"}, "SK-MEL-28 melanoma": {"tested_on": "SK-MEL-28 melanoma"}, "NCI-H226 lung": {"tested_on": "NCI-H226 lung"}, "RXF 393 renal": {"tested_on": "RXF 393 renal"}, "SNB-19 CNS": {"tested_on": "SNB-19 CNS"}, "CAKI-1 renal": {"tested_on": "CAKI-1 renal"}, "BT-549 breast": {"tested_on": "BT-549 breast"}, "LOX IMVI melanoma": {"tested_on": "LOX IMVI melanoma"}, "MDA-MB-231 breast": {"tested_on": "MDA-MB-231 breast"}, "PC-3 prostate": {"tested_on": "PC-3 prostate"}, "SF-268 CNS": {"tested_on": "SF-268 CNS"}, "MALME-3M melanoma": {"tested_on": "MALME-3M melanoma"}, "ACHN renal": {"tested_on": "ACHN renal"}, "NCI-H460 lung": {"tested_on": "NCI-H460 lung"}, "MCF7 breast": {"tested_on": "MCF7 breast"}, "A549 NSCLC": {"tested_on": "A549 NSCLC"}, "UACC-62 melanoma": {"tested_on": "UACC-62 melanoma"}, "K-562 leukemia": {"tested_on": "K-562 leukemia"}, "OVCAR-8 ovarian": {"tested_on": "OVCAR-8 ovarian"}, "SW-620 colon": {"tested_on": "SW-620 colon"}, "SF-539 CNS": {"tested_on": "SF-539 CNS"}, "COLO 205 colon": {"tested_on": "COLO 205 colon"}, "UO-31 renal": {"tested_on": "UO-31 renal"}, "SN12C renal": {"tested_on": "SN12C renal"}, "MOLT-4 leukemia": {"tested_on": "MOLT-4 leukemia"}}, "note": "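How tested: cells in 96-well plates exposed to compound for 48 hours at five concentrations. GI50 = concentration required for 50% inhibition of growth. The concentration for full growth arrest is given as TGI.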"}
{"compound": "CSC(=S)NN=C1CCCCC1", "values": [{"measurement": "TGI", "setting": "SK-MEL-5 melanoma", "value": 37.7, "unit": "µM"}, {"measurement": "TGI", "setting": "HS 578T breast", "value": "> 100", "unit": "µM"}, {"measurement": "TGI", "setting": "TK-10 renal", "value": 89.7, "unit": "µM"}, {"measurement": "TGI", "setting": "786-0 renal", "value": "> 100", "unit": "µM"}, {"measurement": "TGI", "setting": "A498 renal", "value": "> 100", "unit": "µM"}, {"measurement": "TGI", "setting": "NCI/ADR-RES ovarian", "value": 60.6, "unit": "µM"}, {"measurement": "TGI", "setting": "KM12 colon", "value": "> 100", "unit": "µM"}, {"measurement": "TGI", "setting": "SK-MEL-2 melanoma", "value": "> 100", "unit": "µM"}, {"measurement": "TGI", "setting": "OVCAR-3 ovarian", "value": "> 100", "unit": "µM"}, {"measurement": "TGI", "setting": "T-47D breast", "value": "> 100000", "unit": "nM"}, {"measurement": "TGI", "setting": "SK-OV-3 ovarian", "value": "> 100000", "unit": "nM"}, {"measurement": "TGI", "setting": "RPMI-8226 leukemia", "value": 647, "unit": "nM"}, {"measurement": "TGI", "setting": "OVCAR-4 ovarian", "value": "> 100000", "unit": "nM"}, {"measurement": "TGI", "setting": "U251 CNS", "value": "> 100", "unit": "µM"}, {"measurement": "TGI", "setting": "MDA-MB-435", "value": "> 100", "unit": "µM"}, {"measurement": "TGI", "setting": "HOP-92 NSCLC", "value": "> 100", "unit": "µM"}, {"measurement": "TGI", "setting": "HT29 colon", "value": "> 100", "unit": "µM"}, {"measurement": "TGI", "setting": "NCI-H23 lung", "value": "> 100", "unit": "µM"}, {"measurement": "TGI", "setting": "NCI-H522 lung", "value": 88.7, "unit": "µM"}, {"measurement": "TGI", "setting": "CCRF-CEM leukemia", "value": 87.8, "unit": "µM"}, {"measurement": "TGI", "setting": "IGROV1 ovarian", "value": 43.3, "unit": "µM"}, {"measurement": "TGI", "setting": "HCT-15 colon", "value": "> 100", "unit": "µM"}, {"measurement": "TGI", "setting": "M14 melanoma", "value": 38.7, "unit": "µM"}, {"measurement": "TGI", "setting": "DU-145 prostate", "value": "> 100", "unit": "µM"}, {"measurement": "TGI", "setting": "HOP-62 NSCLC", "value": "> 100", "unit": "µM"}, {"measurement": "TGI", "setting": "UACC-257 melanoma", "value": "> 100000", "unit": "nM"}, {"measurement": "TGI", "setting": "HCT-116 colon", "value": "> 100", "unit": "µM"}, {"measurement": "TGI", "setting": "EKVX NSCLC", "value": "> 100", "unit": "µM"}, {"measurement": "TGI", "setting": "SNB-75 CNS", "value": "> 100000", "unit": "nM"}, {"measurement": "TGI", "setting": "SF-295 CNS", "value": "> 100", "unit": "µM"}, {"measurement": "TGI", "setting": "SK-MEL-28 melanoma", "value": "> 100000", "unit": "nM"}, {"measurement": "TGI", "setting": "NCI-H226 lung", "value": 42.4, "unit": "µM"}, {"measurement": "TGI", "setting": "RXF 393 renal", "value": "> 100", "unit": "µM"}, {"measurement": "TGI", "setting": "SNB-19 CNS", "value": "> 100", "unit": "µM"}, {"measurement": "TGI", "setting": "CAKI-1 renal", "value": 65.2, "unit": "µM"}, {"measurement": "TGI", "setting": "BT-549 breast", "value": "> 100", "unit": "µM"}, {"measurement": "TGI", "setting": "LOX IMVI melanoma", "value": 53.1, "unit": "µM"}, {"measurement": "TGI", "setting": "MDA-MB-231 breast", "value": "> 100", "unit": "µM"}, {"measurement": "TGI", "setting": "PC-3 prostate", "value": "> 100", "unit": "µM"}, {"measurement": "TGI", "setting": "SF-268 CNS", "value": "> 100", "unit": "µM"}, {"measurement": "TGI", "setting": "MALME-3M melanoma", "value": 44.8, "unit": "µM"}, {"measurement": "TGI", "setting": "ACHN renal", "value": 56, "unit": "µM"}, {"measurement": "TGI", "setting": "NCI-H460 lung", "value": "> 100", "unit": "µM"}, {"measurement": "TGI", "setting": "MCF7 breast", "value": "> 100000", "unit": "nM"}, {"measurement": "TGI", "setting": "A549 NSCLC", "value": "> 100", "unit": "µM"}, {"measurement": "TGI", "setting": "UACC-62 melanoma", "value": 38, "unit": "µM"}, {"measurement": "TGI", "setting": "K-562 leukemia", "value": 83.2, "unit": "µM"}, {"measurement": "TGI", "setting": "OVCAR-8 ovarian", "value": "> 100000", "unit": "nM"}, {"measurement": "TGI", "setting": "SW-620 colon", "value": "> 100", "unit": "µM"}, {"measurement": "TGI", "setting": "SF-539 CNS", "value": 67.7, "unit": "µM"}, {"measurement": "TGI", "setting": "COLO 205 colon", "value": "> 100", "unit": "µM"}, {"measurement": "TGI", "setting": "UO-31 renal", "value": "> 100", "unit": "µM"}, {"measurement": "TGI", "setting": "SN12C renal", "value": 84.9, "unit": "µM"}, {"measurement": "TGI", "setting": "MOLT-4 leukemia", "value": 40.8, "unit": "µM"}]}
{"compound": "Cc1c2c(cc[n+]1Cc1ccccc1)c1ccc(OCC3CCCCC3)cc1n2CC1CCCCC1", "values": [{"measurement": "GI50", "setting": "HS 578T breast", "value": 525, "unit": "nM"}, {"measurement": "TGI", "setting": "HS 578T breast", "value": 4.06, "unit": "µM"}, {"measurement": "GI50", "setting": "NCI/ADR-RES ovarian", "value": 1750, "unit": "nM"}, {"measurement": "TGI", "setting": "NCI/ADR-RES ovarian", "value": 4.29, "unit": "µM"}, {"measurement": "GI50", "setting": "T-47D breast", "value": 560, "unit": "nM"}, {"measurement": "TGI", "setting": "T-47D breast", "value": 1790, "unit": "nM"}, {"measurement": "GI50", "setting": "SK-OV-3 ovarian", "value": 506, "unit": "nM"}, {"measurement": "TGI", "setting": "SK-OV-3 ovarian", "value": 1560, "unit": "nM"}, {"measurement": "GI50", "setting": "OVCAR-4 ovarian", "value": 235, "unit": "nM"}, {"measurement": "TGI", "setting": "OVCAR-4 ovarian", "value": 735, "unit": "nM"}, {"measurement": "GI50", "setting": "NCI-H522 lung", "value": 261, "unit": "nM"}, {"measurement": "TGI", "setting": "NCI-H522 lung", "value": 0.788, "unit": "µM"}, {"measurement": "GI50", "setting": "CCRF-CEM leukemia", "value": 207, "unit": "nM"}, {"measurement": "TGI", "setting": "CCRF-CEM leukemia", "value": 0.787, "unit": "µM"}, {"measurement": "GI50", "setting": "IGROV1 ovarian", "value": 525, "unit": "nM"}, {"measurement": "TGI", "setting": "IGROV1 ovarian", "value": 2.51, "unit": "µM"}, {"measurement": "GI50", "setting": "UACC-257 melanoma", "value": 299, "unit": "nM"}, {"measurement": "TGI", "setting": "UACC-257 melanoma", "value": 961, "unit": "nM"}, {"measurement": "GI50", "setting": "SNB-75 CNS", "value": 293, "unit": "nM"}, {"measurement": "TGI", "setting": "SNB-75 CNS", "value": 1470, "unit": "nM"}, {"measurement": "GI50", "setting": "SK-MEL-28 melanoma", "value": 590, "unit": "nM"}, {"measurement": "TGI", "setting": "SK-MEL-28 melanoma", "value": 1880, "unit": "nM"}, {"measurement": "GI50", "setting": "CAKI-1 renal", "value": 1280, "unit": "nM"}, {"measurement": "TGI", "setting": "CAKI-1 renal", "value": 2.64, "unit": "µM"}, {"measurement": "GI50", "setting": "ACHN renal", "value": 1240, "unit": "nM"}, {"measurement": "TGI", "setting": "ACHN renal", "value": 2.53, "unit": "µM"}, {"measurement": "GI50", "setting": "MCF7 breast", "value": 306, "unit": "nM"}, {"measurement": "TGI", "setting": "MCF7 breast", "value": 1110, "unit": "nM"}, {"measurement": "GI50", "setting": "UACC-62 melanoma", "value": 342, "unit": "nM"}, {"measurement": "TGI", "setting": "UACC-62 melanoma", "value": 1.28, "unit": "µM"}, {"measurement": "GI50", "setting": "OVCAR-8 ovarian", "value": 364, "unit": "nM"}, {"measurement": "TGI", "setting": "OVCAR-8 ovarian", "value": 1350, "unit": "nM"}, {"measurement": "GI50", "setting": "SF-539 CNS", "value": 1490, "unit": "nM"}, {"measurement": "TGI", "setting": "SF-539 CNS", "value": 2.88, "unit": "µM"}]}
